Laboratory results taken from patent US8765098B2, “Star polymers, methods of preparation thereof, and uses thereof” (International Business Machines Corporation, priority 2010, dated 2014).

Assay: Appearance of aqueous mixtures of star polymer, dye alone and loaded star polymers (FIG. 10)
Type: physicochemical
Conditions: in water, FIG. 10 vials A-D
Procedure: The solution was added drop-wise to water (0.9 mL) with rapid stirring, causing the water to rapidly and uniformly color from the dye. Excess solid dye material not adsorbed to the star polymer was removed by passing the mixture through a 0.2 micrometer syringe filter, thereby forming a clear and uniformly colored aqueous solution. The further addition of water had no visible effect on the homogeneity of the solution.
FIG. 10 is a photograph of four aqueous mixtures. […] The vial labeled C is an aqueous mixture of 5,10,15,20-(3,5-ditertbutylphenyl)porphyrin (M=2H) (DTBP) alone in water.

appearance of aqueous solution / mixture: clear and colorless
SMILES: CC(C)(C)c1cc(-c2c3nc(c(-c4cc(C(C)(C)C)cc(C(C)(C)C)c4)c4ccc([nH]4)c(-c4cc(C(C)(C)C)cc(C(C)(C)C)c4)c4nc(c(-c5cc(C(C)(C)C)cc(C(C)(C)C)c5)c5ccc2[nH]5)C=C4)C=C3)cc(C(C)(C)C)c1 [DTBP, 5,10,15,20-(3,5-ditertbutylphenyl)porphyrin (M=2H)]
